Measurements from ChEMBL document CHEMBL1122904, “Bioactive conformation of 1-arylpiperazines at central serotonin receptors” (J Med Chem, 1985).
pKi: −log10 of the molar value.

The compounds below were run against 5-hydroxytryptamine receptor 1B (Rattus norvegicus, UniProt P28564) (assay: Intrinsic affinity towards serotonin receptor from rat frontal cortex by displacement of [3H]5-HT).
Type: tissue-based

Sequence of 5-hydroxytryptamine receptor 1B (P28564 whole entry): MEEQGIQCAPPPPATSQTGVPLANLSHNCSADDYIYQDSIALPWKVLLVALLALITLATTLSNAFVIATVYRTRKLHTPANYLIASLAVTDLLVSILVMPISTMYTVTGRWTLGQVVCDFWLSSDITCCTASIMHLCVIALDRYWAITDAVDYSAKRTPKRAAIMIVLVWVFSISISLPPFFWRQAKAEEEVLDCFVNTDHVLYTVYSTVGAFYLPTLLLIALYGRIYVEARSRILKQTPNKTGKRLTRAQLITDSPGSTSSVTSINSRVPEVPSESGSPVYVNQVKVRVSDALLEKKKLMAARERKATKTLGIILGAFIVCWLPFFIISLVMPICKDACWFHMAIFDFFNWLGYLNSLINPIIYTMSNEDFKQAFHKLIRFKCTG

In order of rising pKi:
1. Clc1cncc(N2CCNCC2)n1 [MK-212]  5.44
2. FC(F)(F)c1cccc(N2CCNCC2)c1  6.94
3. FC(F)(F)c1ccc2c(c1)N1CCNCC1CC2 (stereo not drawn)  7.17
